Earlier results on 2 compounds are cited in patent US5266487A, “Apparatus for the treatment of lignocellulosic materials” (Knobbe, Martens, Olson & Bear, priority 1992, dated 1993).

Like-named read-outs stand apart in the source and are kept apart here.

The target in the series is alcohol oxidase (methanol oxidase), preferred enzyme from Hansenula polymorpha ATCC 34438 (Pichia angusta, UniProt P04841).
alcohol oxidase (methanol oxidase), preferred enzyme from Hansenula polymorpha ATCC 34438, sequence (P04841 whole entry): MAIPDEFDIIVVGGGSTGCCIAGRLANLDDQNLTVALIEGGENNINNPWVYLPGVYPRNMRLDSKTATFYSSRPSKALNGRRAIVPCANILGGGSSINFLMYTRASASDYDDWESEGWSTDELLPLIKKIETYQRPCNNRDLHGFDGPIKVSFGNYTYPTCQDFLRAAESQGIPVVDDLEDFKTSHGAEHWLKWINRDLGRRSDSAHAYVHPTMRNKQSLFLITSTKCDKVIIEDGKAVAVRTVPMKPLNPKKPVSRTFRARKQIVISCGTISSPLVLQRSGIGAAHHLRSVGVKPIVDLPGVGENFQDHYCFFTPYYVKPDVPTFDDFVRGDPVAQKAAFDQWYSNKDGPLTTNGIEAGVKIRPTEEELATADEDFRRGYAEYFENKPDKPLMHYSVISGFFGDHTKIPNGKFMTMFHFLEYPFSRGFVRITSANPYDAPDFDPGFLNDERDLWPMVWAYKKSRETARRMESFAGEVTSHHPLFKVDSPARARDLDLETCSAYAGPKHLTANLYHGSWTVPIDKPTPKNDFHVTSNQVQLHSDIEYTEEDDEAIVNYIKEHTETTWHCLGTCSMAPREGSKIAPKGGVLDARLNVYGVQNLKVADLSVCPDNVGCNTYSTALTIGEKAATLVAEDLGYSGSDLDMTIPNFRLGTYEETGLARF

`O=O` [oxygen]: the Michaelis constant (Km) (read-out: Km oxygen, see Van Dijken et al., Arch. Microbiol. 111, 137 (1976)) was 400 µM.
For `CO` [methanol], under “read-out: Km methanol, see Van Dijken et al., Arch. Microbiol. 111, 137 (1976)”, the Km was 2000 µM.

The term Km denotes the substrate concentration at which the rate is half of its maximum.
